Key:
[1] = tested on: MOLM-14 D835Y (endogenous FLT3 ITD and transfected FLT3 D835Y); assay: MOLM-14 D835Y cell proliferation assay (CellTiter-Glo); format: cell-based; settings: Homo sapiens, MOLM-14, 72 h; 3 d growth, GMean
Outline: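 Three-day proliferation at 37 °C/5% CO2 of FLT3-ITD MOLM-14 lines with D835Y or F691L mutation, seeded 1×10^4 per well. Compounds at eight points, top 1 μM final, 0.2% DMSO. ATP luminescence (CellTiter-Glo) gives IC50.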

FLT3-D835Y = target: T1, FLT3-D835Y (Homo sapiens, UniProt P36888, D835Y); assay: FLT3-D835Y recombinant enzyme kinase assay (AlphaScreen); format: biochemical; settings: 8 pt, GMean
T1 construct: purchased Invitrogen PV3967
T1 sequence (P36888 27-993 D835Y): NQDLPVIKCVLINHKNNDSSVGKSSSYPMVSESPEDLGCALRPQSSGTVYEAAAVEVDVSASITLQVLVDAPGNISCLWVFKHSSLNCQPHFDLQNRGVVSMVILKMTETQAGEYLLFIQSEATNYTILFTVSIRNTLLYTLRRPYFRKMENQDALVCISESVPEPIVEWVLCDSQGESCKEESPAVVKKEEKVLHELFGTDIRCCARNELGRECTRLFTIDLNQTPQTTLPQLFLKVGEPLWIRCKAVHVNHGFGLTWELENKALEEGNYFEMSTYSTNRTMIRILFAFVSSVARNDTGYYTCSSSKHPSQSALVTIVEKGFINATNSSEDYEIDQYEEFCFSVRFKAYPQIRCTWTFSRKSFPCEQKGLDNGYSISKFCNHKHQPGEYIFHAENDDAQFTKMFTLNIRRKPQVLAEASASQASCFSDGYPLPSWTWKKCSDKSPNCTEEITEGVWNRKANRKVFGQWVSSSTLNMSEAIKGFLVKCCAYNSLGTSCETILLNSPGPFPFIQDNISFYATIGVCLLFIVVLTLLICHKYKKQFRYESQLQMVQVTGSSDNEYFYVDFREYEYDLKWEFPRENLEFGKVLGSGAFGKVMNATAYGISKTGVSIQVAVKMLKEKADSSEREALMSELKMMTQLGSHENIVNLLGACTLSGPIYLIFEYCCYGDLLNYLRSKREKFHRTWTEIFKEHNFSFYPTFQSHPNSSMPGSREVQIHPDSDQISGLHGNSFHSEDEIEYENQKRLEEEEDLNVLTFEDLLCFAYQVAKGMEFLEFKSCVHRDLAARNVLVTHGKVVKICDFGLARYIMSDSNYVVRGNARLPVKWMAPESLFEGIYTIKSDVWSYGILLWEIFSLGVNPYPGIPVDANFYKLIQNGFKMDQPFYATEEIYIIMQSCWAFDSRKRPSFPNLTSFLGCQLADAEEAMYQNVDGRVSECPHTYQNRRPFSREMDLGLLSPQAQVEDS
Outline: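 Enzyme plus biotinylated poly(Glu4-Tyr) substrate (30 nM) mixed with compound, then ATP added. Donor beads went in for 20 min at room temperature, then PY20 acceptor beads for 60 min. AlphaScreen read; ATP was 10 μM for FLT3-ITD/D835Y and 100 μM for c-KIT.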

Compound | IC50 [1] [µM] | IC50 (FLT3-D835Y) [µM]
Cn1cc(Nc2ncc(-c3cc(F)c(CC(=O)Nc4cncc(C(F)(F)F)c4)cc3F)cn2)cn1 [Compound P-0207, 2-[2,5-difluoro-4-[2-[(1-methylpyrazol-4-yl)amino]pyrimidin-5-yl]phenyl]-N-[5-(trifluoromethyl)-3-pyridyl]acetamide] | 0.0001 to 10 | 0.0001 to 10
COCCn1cc(Nc2ncc(-c3ccc(CC(=O)Nc4cnc(OC)c(C(F)(F)F)c4)c(F)c3)cn2)cn1 [Compound P-0265, 2-[2-fluoro-4-[2-[[1-(2-methoxyethyl)pyrazol-4-yl]amino]pyrimidin-5-yl]phenyl]-N-[6-methoxy-5-(trifluoromethyl)-3-pyridyl]acetamide] | 0.0001 to 10 | 0.0001 to 10
Cc1nn(C)cc1Nc1ncc(-c2ccc(CC(=O)Nc3cnc(C)c(C(F)(F)F)c3)cc2)cn1 [Compound P-0228, 2-[4-[2-[(1,3-dimethylpyrazol-4-yl)amino]pyrimidin-5-yl]phenyl]-N-[6-methyl-5-(trifluoromethyl)-3-pyridyl]acetamide] | 0.0001 to 10 | 0.0001 to 10
COc1ncc(NC(=O)Cc2ccc(-c3cnc(Nc4cnn(C5CC5)c4)nc3)cc2)cc1C(F)(F)F [Compound P-0234, 2-[4-[2-[(1-cyclopropylpyrazol-4-yl)amino]pyrimidin-5-yl]phenyl]-N-[6-methoxy-5-(trifluoromethyl)-3-pyridyl]acetamide] | 0.0001 to 10 | 0.0001 to 10
COc1ncc(NC(=O)Cc2ccc(-c3cnc4[nH]c(-c5ccc(C#N)nc5)cc4c3)c(F)c2)cc1C(F)(F)F [Compound P-0014, 2-[4-[2-(6-cyano-3-pyridyl)-1H-pyrrolo[2,3-b]pyridin-5-yl]-3-fluoro-phenyl]-N-[6-methoxy-5-(trifluoromethyl)-3-pyridyl]acetamide] | 0.0001 to 10 | 0.0001 to 10
CCn1cc(Nc2ncc(-c3ccc(CC(=O)Nc4cnc(C)c(C(F)(F)F)c4)cc3)cn2)cn1 [Compound P-0254, 2-[4-[2-[(1-ethylpyrazol-4-yl)amino]pyrimidin-5-yl]phenyl]-N-[6-methyl-5-(trifluoromethyl)-3-pyridyl]acetamide] | 0.0001 to 10 | 0.0001 to 10
O=C(Cc1ccc(-c2cnc(Nc3cnn(C4CC4)c3)nc2)cc1)Nc1cnc(Cl)c(C(F)(F)F)c1 [Compound P-0233, N-[6-chloro-5-(trifluoromethyl)-3-pyridyl]-2-[4-[2-[(1-cyclopropylpyrazol-4-yl)amino]pyrimidin-5-yl]phenyl]acetamide] | 0.0001 to 10 | 0.0001 to 10
CCn1cc(Nc2ncc(-c3ccc(CC(=O)Nc4cc(C(F)(F)F)ccn4)cc3)cn2)cn1 [Compound P-0250, 2-[4-[2-[(1-ethylpyrazol-4-yl)amino]pyrimidin-5-yl]phenyl]-N-[4-(trifluoromethyl)-2-pyridyl]acetamide] | 0.0001 to 10 | 0.0001 to 10
O=C(Cc1ccc(-c2cnc(Nc3cnn(C4CC4)c3)nc2)cc1F)Nc1ccc(C(F)(F)F)nc1 [Compound P-0242, 2-[4-[2-[(1-cyclopropylpyrazol-4-yl)amino]pyrimidin-5-yl]-2-fluoro-phenyl]-N-[6-(trifluoromethyl)-3-pyridyl]acetamide] | 0.0001 to 10 | 0.0001 to 10
COc1ncc(NC(=O)Cc2ccc(-c3cnc4[nH]c(-c5ccc(C#N)nc5)cc4c3)cc2F)cc1C(F)(F)F [Compound P-0011, 2-[4-[2-(6-cyano-3-pyridyl)-1H-pyrrolo[2,3-b]pyridin-5-yl]-2-fluoro-phenyl]-N-[6-methoxy-5-(trifluoromethyl)-3-pyridyl]acetamide] | 0.0001 to 10 | 0.0001 to 10
O=C(Cc1cc(F)c(-c2cnc(Nc3cnn(C(F)F)c3)nc2)cc1F)Nc1cc(C(F)(F)F)ccn1 [Compound P-0021, 2-[4-[2-[[1-(difluoromethyl)pyrazol-4-yl]amino]pyrimidin-5-yl]-2,5-difluoro-phenyl]-N-[4-(trifluoromethyl)-2-pyridyl]acetamide] | 0.0001 to 10 | 0.0001 to 10
CCn1cc(Nc2ncc(-c3ccc(CC(=O)Nc4cnc(C)c(C(F)(F)F)c4)c(F)c3)cn2)cn1 [Compound P-0261, 2-[4-[2-[(1-ethylpyrazol-4-yl)amino]pyrimidin-5-yl]-2-fluoro-phenyl]-N-[6-methyl-5-(trifluoromethyl)-3-pyridyl]acetamide] | 0.0001 to 10 | 0.0001 to 10

Other lines, results leading:

IC50 [1] [µM] | IC50 (FLT3-D835Y) [µM] | Compound
0.0001 to 10 | 0.0001 to 10 | CCn1cc(Nc2ncc(-c3ccc(CC(=O)Nc4cnc(OC)c(C(F)(F)F)c4)cc3F)cn2)cn1 [Compound P-0246, 2-[4-[2-[(1-ethylpyrazol-4-yl)amino]pyrimidin-5-yl]-3-fluoro-phenyl]-N-[6-methoxy-5-(trifluoromethyl)-3-pyridyl]acetamide]
0.0001 to 10 | 0.0001 to 10 | Cn1cnc(Nc2ncc(-c3ccc(CC(=O)Nc4cc(C(F)(F)F)ccn4)cc3)cn2)c1 [Compound P-0022, 2-[4-[2-[(1-methylimidazol-4-yl)amino]pyrimidin-5-yl]phenyl]-N-[4-(trifluoromethyl)-2-pyridyl]acetamide]
0.0001 to 10 | 0.0001 to 10 | O=C(Cc1ccc(-c2cnc3[nH]c(-c4ccnc(N5CCOCC5)c4)cc3c2)c(F)c1)Nc1cncc(C(F)(F)F)c1 [Compound P-0201, 2-[3-fluoro-4-[2-(2-morpholino-4-pyridyl)-1H-pyrrolo[2,3-b]pyridin-5-yl]phenyl]-N-[5-(trifluoromethyl)-3-pyridyl]acetamide]
0.0001 to 10 | 0.0001 to 10 | COCCn1cc(Nc2ncc(-c3ccc(CC(=O)Nc4ccc(C(F)(F)F)nc4)cc3)cn2)cn1 [Compound P-0273, 2-[4-[2-[[1-(2-methoxyethyl)pyrazol-4-yl]amino]pyrimidin-5-yl]phenyl]-N-[6-(trifluoromethyl)-3-pyridyl]acetamide]
0.0001 to 10 | 0.0001 to 10 | O=C(Cc1ccc(-c2cnc(Nc3cnn(C4CC4)c3)nc2)cc1F)Nc1cncc(C(F)(F)F)c1 [Compound P-0238, 2-[4-[2-[(1-cyclopropylpyrazol-4-yl)amino]pyrimidin-5-yl]-2-fluoro-phenyl]-N-[5-(trifluoromethyl)-3-pyridyl]acetamide]
0.0001 to 10 | 0.0001 to 10 | CC(C)(O)C#Cc1cc2cc(-c3ccc(CC(=O)Nc4cncc(C(F)(F)F)c4)cc3)cnc2[nH]1 [Compound P-0204, 2-[4-[2-(3-hydroxy-3-methyl-but-1-ynyl)-1H-pyrrolo[2,3-b]pyridin-5-yl]phenyl]-N-[5-(trifluoromethyl)-3-pyridyl]acetamide]
0.0001 to 10 | 0.0001 to 10 | COc1ncc(NC(=O)Cc2ccc(-c3cnc4[nH]nc(NC(=O)C(F)(F)F)c4c3)cc2)cc1C(F)(F)F [Compound P-0215, 2,2,2-trifluoro-N-[5-[4-[2-[[6-methoxy-5-(trifluoromethyl)-3-pyridyl]amino]-2-oxo-ethyl]phenyl]-1H-pyrazolo[3,4-b]pyridin-3-yl]acetamide]
0.0001 to 10 | 0.0001 to 10 | CCn1cc(Nc2ncc(-c3ccc(CC(=O)Nc4cc(C(F)(F)F)ccn4)c(F)c3)cn2)cn1 [Compound P-0255, 2-[4-[2-[(1-ethylpyrazol-4-yl)amino]pyrimidin-5-yl]-2-fluoro-phenyl]-N-[4-(trifluoromethyl)-2-pyridyl]acetamide]
0.0001 to 10 | 0.0001 to 10 | COCCn1cc(Nc2ncc(-c3ccc(CC(=O)Nc4cc(C(F)(F)F)ccn4)c(F)c3)cn2)cn1 [Compound P-0270, 2-[2-fluoro-4-[2-[[1-(2-methoxyethyl)pyrazol-4-yl]amino]pyrimidin-5-yl]phenyl]-N-[4-(trifluoromethyl)-2-pyridyl]acetamide]
0.0001 to 10 | 0.0001 to 10 | CCOc1n[nH]c2ncc(-c3ccc(CC(=O)Nc4cnc(OC)c(C(F)(F)F)c4)cc3)cc12 [Compound P-0213, 2-(4-(3-ethoxy-1H-pyrazolo[3,4-b]pyridin-5-yl)phenyl)-N-(6-methoxy-5-(trifluoromethyl)pyridin-3-yl)acetamide]
0.0001 to 10 | 0.0001 to 10 | COCCn1cc(Nc2ncc(-c3ccc(CC(=O)Nc4ccc(C(F)(F)F)nc4)c(F)c3)cn2)cn1 [Compound P-0268, 2-[2-fluoro-4-[2-[[1-(2-methoxyethyl)pyrazol-4-yl]amino]pyrimidin-5-yl]phenyl]-N-[6-(trifluoromethyl)-3-pyridyl]acetamide]
